According to patent US20170015640A1, “USE OF ARYLALKANOLAMINES AS SIGMA-1 RECEPTOR ANTAGONISTS” (Università degli studi di Pavia, priority 2014, published 2017):
pKi: −log10 of the molar value.

How the values were obtained:
[1] = biological target: T1, σ-1 receptors (Rattus norvegicus, UniProt Q9R0C9); experiment: Growth of NGF-induced neurite outgrowths in PC12 cells (agonist/antagonist profile); format: cell-based; details: FIG. 6
T1 construct: performed on rat pheochromocytoma cells (PC12 cells); endogenous in cells; host or cells: PC12 rat pheochromocytoma cells
T1 sequence (Q9R0C9 whole entry): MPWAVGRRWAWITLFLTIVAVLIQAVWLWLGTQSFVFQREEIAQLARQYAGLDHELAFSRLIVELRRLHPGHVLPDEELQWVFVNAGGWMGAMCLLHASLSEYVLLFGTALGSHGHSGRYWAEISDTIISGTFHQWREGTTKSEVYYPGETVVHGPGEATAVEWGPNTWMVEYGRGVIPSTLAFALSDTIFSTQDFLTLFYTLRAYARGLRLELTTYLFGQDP
Procedure: Evaluation of the growth of neurite outgrowths induced by neuronal growth factor (NGF).
Evaluation of the growth of NGF-induced neurite outgrowths was performed on rat pheochromocytoma cells (PC12 cells), conventionally used as a model of neuronal study.
This method constitutes a reliable model for evaluating the agonist/antagonist profile of low molecular weight compounds on the o receptors. In particular, it has been reported that σ-1 agonists potentiate the growth of NGF-induced neurite outgrowths in PC12 cells. In contrast, σ-1 antagonists oppose the action of the agonists, leading to a reduction in NGF-induced growth (Rossi D. et al., “identification of a potent and selective σ1 receptor agonist potentiating NGF-induced neurite outgrowth in PC12 cells”, Bioorg. Med. Chem. 2011, 19, 6210-6224).
The cell culturing PC12 cells, the method for quantifying the growth of neurite outgrowths and the cytotoxicity test were performed as described by Rossi D. et al. in Bioorg. Med. Chem. 2011 cited above.
Statistical analysis of the data obtained was performed using the two-way analysis of variants (ANOVA) method and the Tukey post-hoc test. Values of p<0.05 were considered as being statistically significant.
The results, expressed as the mean value ±standard error of mean (SEM), represent the percentage of cells showing neurite growth. […]

[2] = In vitro metabolic stability in human plasma; format: in vitro ADME; details: 37° C., FIG. 7(A)
Procedure: (§1) The metabolic stability studies were performed using biological matrices (plasma, blood and S9 fraction of liver) obtained from various animal species.
(§2) The biological matrices and the analysis method were arranged according to the process described by Rossi D. et al. in “Identification of RC-33 as a potent and selective al receptor agonist potentiating NGF-induced neurite outgrowth in PC12 cells. Part 2: g -scale synthesis, physicochemical characterization and in vitro metabolic stability” (Bioorg. Med. Chem. 2013, 21, 2577-2586).
(§3) For each biological matrix, suitable solutions were prepared to perform the test, as described below.
(§4) 10 μL of a stock solution of compound 1 in dimethyl sulfoxide (DMSO) were incubated with each matrix (total reaction volume 1 mL) in a mixer thermostatically maintained at 37° C. for […]. 50 μL aliquots were taken from each reaction mixture and sampled in duplicate at 5, 10, 15, 30, 60, 120 and 240 minutes to determine the reaction kinetics. […] The supernatant was analysed by means of an Acquity Waters ultra-fast liquid chromatography system, interfaced with a photodiode array detector (UPLC/UV/PAD) to obtain the concentration of the test compound at each of the said times. […]
(§5) The results, obtained from three independent experiments and expressed as the mean value ±standard deviation (SD), are given in FIGS. 8 and 9.

[3] = In vitro metabolic stability in S9 fraction of human liver; format: in vitro ADME
Procedure: as §1, §2, §3, §4, §5

[4] = In vitro metabolic stability, overall conclusion over biological matrices; format: in vitro ADME, various animal species
Procedure: as §1, §2, §3, §4, §5

[5] = tested on: male ICR mice; experiment: Formalin test (animal model of inflammatory pain); format: in vivo, mouse; details: intraperitoneal, even at a dose of 1 mg/kg, 30 min before 2% formalin, FIG. 9
Procedure: The formalin test is an animal model of inflammatory pain widely used and known in the literature.
32 male ICR mice weighing 25 grams were divided into 4 groups of 8 mice each.
The vehicle alone, which consisted of a mixture of dimethyl sulfoxide (DMSO), castor oil Cremophor® EL (BASF) and distilled water, in a 10/10/80 ratio, was administered to the control group (CTR).
Compound 1 was dissolved in the same vehicle and administered at the following doses: • group 1, 1 mg/kg; • group 2, 10 mg/kg; and • group 3, 20 mg/kg.
All the administrations took place by intraperitoneal injection. Thirty minutes after the administration, all the mice were subjected to an injection with 20 uL of a 2% formalin solution subcutaneously, into a paw.
The injection of formalin induces a two-phase nociceptive response, in other words, within the first 5-10 minutes of the administration of formalin, the first nociceptive phase is manifested, followed by a phase of quiescence and by the second nociceptive phase which is manifested 20-30 minutes after the administration of formalin.
The nociceptive response was recorded by evaluating the time that each mouse spent licking or biting its paw which received the injection. […]

[6] = In vitro metabolic stability in rat plasma; format: in vitro ADME; details: 37° C., FIG. 7(A)
Procedure: as §1, §2, §3, §4, §5

[7] = In vitro metabolic stability in mouse blood; format: in vitro ADME; details: 37° C., FIG. 7(B)
Procedure: as §1, §2, §3, §4, §5

[8] = biological target: σ-1 receptor (Cavia porcellus, UniProt Q60492); experiment: biochemical
σ-1 receptor, sequence (Q60492 whole entry): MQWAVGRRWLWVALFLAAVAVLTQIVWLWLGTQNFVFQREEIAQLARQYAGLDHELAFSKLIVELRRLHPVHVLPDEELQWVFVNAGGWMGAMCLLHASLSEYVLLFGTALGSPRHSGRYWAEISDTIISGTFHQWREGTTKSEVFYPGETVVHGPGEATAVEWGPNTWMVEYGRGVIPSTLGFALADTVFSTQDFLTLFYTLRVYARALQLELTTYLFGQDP
Description: The IC50 values obtained from three independent experiments were transformed into the respective affinity constants (Ki), using the Cheng-Prusoff equation.

[9] = In vitro metabolic stability in dog plasma; format: in vitro ADME; details: 37° C., FIG. 7(A)
Procedure: as §1, §2, §3, §4, §5

[10] = In vitro metabolic stability in rat blood; format: in vitro ADME; details: 37° C., FIG. 7(B)
Procedure: as §1, §2, §3, §4, §5

[11] = In vitro metabolic stability in S9 fraction of rat liver; format: in vitro ADME
Procedure: as §1, §2, §3, §4, §5

percentage of cells with growth of neurite outgrowths ([1]; reference group (PRE) relative to control group (NGF))	SMILES	effect on agonist-potentiated growth of NGF-induced neurite outgrowths ([1]; σ-1 agonist plus 2.5 μM of compound (group A))	metabolization in human plasma [2]	metabolization in S9 fraction of human liver ([3]; absence of NADPH, FIG. 8(A))	metabolization in S9 fraction of human liver ([3]; presence of NADPH, FIG. 8(B))	in vitro metabolic stability [4]	reduction of inflammatory pain (time spent licking or biting the paw) [5]	metabolization in rat plasma [6]	metabolization in mouse blood [7]	pKi [8]	metabolization in dog plasma [9]	metabolization in rat blood [10]	metabolization in S9 fraction of rat liver ([11]; absence of NADPH, FIG. 8(A))	metabolization in S9 fraction of rat liver ([11]; presence of NADPH, FIG. 8(B))
–	OCC(CCN1CCCCC1)c1ccc(-c2ccccc2)cc1 (centres unmarked) [Compound 1, 4-(N-piperidinyl)-2-(4-diphenyl)butanol]	appreciably opposed the effect of the agonist compound	insignificant	insignificant	substantial metabolization	high	effective in reducing inflammatory pain	insignificant	insignificant	8.21	insignificant	insignificant	insignificant	substantial metabolization
increased significantly	Cl.O=C(OCCN1CCOCC1)C1(c2ccccc2)CCCCC1 [PRE, 2-(4-morpholinoethyl)-1-phenylcyclohexanecarboxylate hydrochloride, reference compound]	–	–	–	–	–	–	–	–	–	–	–	–	–
